In article PMC6895048, “4,5-Disubstituted 1,2,3-triazoles: Effective Inhibition of Indoleamine 2,3-Dioxygenase 1 Enzyme Regulates T cell Activity and Mitigates Tumor Growth” (Scientific Reports, 2019):

Legend:
[1] = target: T1, purified human IDO1 enzyme (Homo sapiens, UniProt P14902); experiment: IDO1 inhibition assay by the spectrometric method (pDMAB); assay type: biochemical; settings: for IC50: purified human IDO1, spectrophotometric, mean of three independent assays, read-out: hIDO1 IC50; for fold stronger IDO1 inhibition than MMG-0358: similar experimental conditions
T1 construct: made in house; host or cells: Escherichia coli M15 (pQE30 vector with pREP4 plasmid)
Protocol: Both IDO1 and TDO inhibition assays were performed according to the reported procedures[26]–[30],[50],[51]. […] In the assay system, the minimum and maximum amount of DMSO was 0.02% and 2%, respectively. […] The concentration of the inhibitors was varied from 100 µM to 32 nM by serial dilution technique. Then, the reaction was quenched with 100 µL of 30% (w/v) trichloroacetic acid and was incubated for further 15 minutes at 65 °C. After that, 2% (w/v) pDMAB was used to quantify the amount of kynurenine formation. The absorbance of the reaction mixture was recorded by UV-Vis spectrophotometer at 480 nm.

IDO1 [2] = target: T2, IDO1 (Homo sapiens, UniProt P14902); experiment: Equilibrium surface plasmon resonance (SPR) analysis; assay type: binding; design: made in house; host or cells: Escherichia coli M15 (pQE30 vector with pREP4 plasmid); settings: PBS buffer pH 7.4, triplicate
Protocol: The surface plasmon resonance (SPR) analysis was carried out according to the reported procedure with minor modifications[34],[52]. In brief, the measurements were performed at 25 °C on the Biacore-X100 instrument using CM5 sensor chip (GE Healthcare). PBS buffer at pH 7.4 was used as running buffer. The surface of the CM5 sensor chip was first modified with Anti-His Antibody using amine-coupling kit at a flow rate of 30 µL/ minute, followed by IDO1 enzyme (30 µg/mL) immobilization using His-capture kit at a flow rate of 10 µL/minute for 2 minutes. The IDO1 enzyme capture level was 4000 response units (RU). The binding efficacy (association constant; ka) of the compounds was determined by measuring the change in RU of the SPR sensorgram in absence or presence of the compounds (0 to 50 µM).
Figure S1. Measurements of compound binding affinity of the human IDO1 enzyme by […]
equilibrium SPR analysis.
(D), respectively injected over the biosensor chip surface-immobilized with IDO-1 protein are indicated. PBS buffer at pH 7.4 was used for all measurements. Binding isotherm was generated from the Req (average of triplicate measurements) versus the concentration of […] plot. Kd values determined by nonlinear least-squares analysis of the isotherm using the following equation: Req = Rmax/(1 + Kd/P).
Table S3. IDO1 binding affinity of various compounds determined from equilibrium SPR […]
(1 picture or pasted object on this page, not shown here)

IDO1 [3] = target: T2, IDO1; experiment: Circular dichroism analysis of IDO1 enzyme; design: made in house; host or cells: Escherichia coli M15 (pQE30 vector with pREP4 plasmid)
Protocol: The Circular Dichroism (CD) spectra of the IDO1 enzyme in the absence or presence of compounds were recorded with a Jasco-810-spectropolarimeter according to the reported procedure[37],[38]. Samples of rIDO1 (2 μM) were prepared in 10 mM KPB buffer (pH 6.5) in a […] quartz cuvette. Spectra were recorded by varying the concentration of the compound (250 nM to 4 µM) using a 1 mL quartz cuvette of 1 cm path length with a Jasco J-1500 spectropolarimeter at 17 °C. Also the spectra were collected at a scan rate […] and 1 nm bandwidth from 200 nm to 260 nm with three times scan for averaging. All final spectra were corrected for buffer background CD signals. The % of the secondary structures of the IDO1 enzyme was analyzed using the inbuilt software of the instrument.

IDO1 [4] = target: T2, IDO1; experiment: Cellular IDO1 activity assay in IFN-γ induced MDA-MB-231 cells; assay type: cell-based; design: induce the expression of the native IDO1 enzyme from its mRNA in the MDA-MB-231 cells; endogenous in cells; host or cells: MDA-MB-231 cells induced with human IFN-γ (50 ng/mL); settings: IDO1 expression induced by human IFN-γ (50 ng/mL); mean of three
Protocol: The cellular enzyme activity assay was performed according to the reported procedure with minor modifications[19],[27]–[30],[33],[54]. Briefly, MDA-MB-231 breast cancer cells were selected for this assay because of the presence of IDO1 mRNA in this cell line. First, cells were grown in DMEM/F12 complete media overnight. Then different concentration of human interferon-gamma (IFN-γ) (from 5–1000 ng/mL) was added to it and incubated for 48 hours. This treatment is reported to allow over-expression of IDO1 enzyme in MDA-MB-231 cells. […] Sterile cell-culture grade PBS was used to wash the cells by centrifugation technique. Then, the pellet was lysed in 10 mM HEPES buffer by passing through a sterile syringe. The lysate was used for standard IDO1 assay as mentioned earlier. The relative amount of N-formylkynurenine generated in the presence of the different concentration of IFN-γ was used to optimize the required concentration of IFN-γ for the IDO1 inhibition assay. […] Cells stimulated with IFN-γ alone were used as negative control, while cells stimulated with L-Trp without compound served as positive control. The cells were washed with sterile cell culture grade PBS and lysed in 10 mM HEPES buffer by sterile syringe. The lysate was used for standard IDO1 assay, as mentioned earlier, and the extent of IDO1 enzyme inhibition was determined for the selected compounds.

T1 sequence (P14902 whole entry): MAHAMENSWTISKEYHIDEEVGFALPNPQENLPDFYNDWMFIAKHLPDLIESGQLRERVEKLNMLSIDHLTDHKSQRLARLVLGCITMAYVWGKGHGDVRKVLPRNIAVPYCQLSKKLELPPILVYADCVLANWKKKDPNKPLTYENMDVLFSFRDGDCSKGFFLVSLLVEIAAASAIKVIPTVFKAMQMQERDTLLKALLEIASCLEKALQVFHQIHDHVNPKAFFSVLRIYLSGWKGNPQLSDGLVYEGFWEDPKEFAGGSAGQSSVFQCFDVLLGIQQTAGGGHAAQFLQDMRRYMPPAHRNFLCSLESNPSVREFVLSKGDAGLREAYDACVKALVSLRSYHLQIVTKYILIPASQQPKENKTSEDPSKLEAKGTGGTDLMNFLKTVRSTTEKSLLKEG
T2 sequence (P14902 whole entry): as above

Row | IC50 [1] [nM] | Kd (IDO1 [2]) [nM] | % of Secondary structural elements, Beta (IDO1 [3]; compound 0.25 µM) [%] | % of Secondary structural elements, Helix (IDO1 [3]; compound 0.25 µM) [%] | % of Secondary structural elements, Random (IDO1 [3]; compound 0.25 µM) [%] | % of Secondary structural elements, Turn (IDO1 [3]; compound 0.25 µM) [%] | % of Secondary structural elements, Beta (IDO1 [3]; compound 0.5 µM) [%] | % of Secondary structural elements, Helix (IDO1 [3]; compound 0.5 µM) [%] | % of Secondary structural elements, Random (IDO1 [3]; compound 0.5 µM) [%] | % of Secondary structural elements, Turn (IDO1 [3]; compound 0.5 µM) [%] | % of Secondary structural elements, Beta (IDO1 [3]; compound 1 µM) [%] | % of Secondary structural elements, Helix (IDO1 [3]; compound 1 µM) [%] | % of Secondary structural elements, Random (IDO1 [3]; compound 1 µM) [%] | % of Secondary structural elements, Turn (IDO1 [3]; compound 1 µM) [%] | % of Secondary structural elements, Beta (IDO1 [3]; compound 2 µM) [%] | % of Secondary structural elements, Helix (IDO1 [3]; compound 2 µM) [%] | % of Secondary structural elements, Random (IDO1 [3]; compound 2 µM) [%] | % of Secondary structural elements, Turn (IDO1 [3]; compound 2 µM) [%] | % of Secondary structural elements, Beta (IDO1 [3]; compound 4 µM) [%] | % of Secondary structural elements, Helix (IDO1 [3]; compound 4 µM) [%] | Compound | other results
1 | 545 ± 29 | 61700 ± 6070 | 0 | 28 | 37.9 | 34.1 | 0 | 28.7 | 36.1 | 35.2 | 0 | 30.2 | 33.5 | 36.3 | 0 | 30.5 | 33.8 | 35.7 | 0 | 30.5 | CCOC(=O)c1n[nH]nc1-c1ccc(F)c(F)c1 [Compound 2i] | % of Secondary structural elements, Random (IDO1 [3]; compound 4 µM): 35.7%; % of Secondary structural elements, Turn (IDO1 [3]; compound 4 µM): 33.8%; EC50 (IDO1 [4]): 162 ± 15 nM
2 | 111 ± 5 | 34500 ± 5200 | 0 | 30.1 | 35.8 | 34.1 | 0 | 29.4 | 36.8 | 33.8 | 0 | 29.8 | 35.8 | 34.5 | 0 | 28.5 | 40.8 | 30.7 | 0 | 30.7 | NC(=O)c1n[nH]nc1-c1ccc(F)c(F)c1 [Compound 3i] | fold stronger IDO1 inhibition than MMG-0358 [1]: 3 fold; % of Secondary structural elements, Random (IDO1 [3]; compound 4 µM): 60.4%; % of Secondary structural elements, Turn (IDO1 [3]; compound 4 µM): 8.9%; EC50 (IDO1 [4]): 74 ± 17 nM
3 | 94 ± 4 | 40200 ± 4990 | 0.7 | 27.8 | 37.6 | 33.9 | 0 | 28 | 38.1 | 33.9 | 0 | 27.6 | 40.6 | 31.8 | 0 | 29.8 | 42.6 | 27.6 | 0 | 31.8 | O=C(N/C(Cc1ccc(O)cc1)=N\O)c1n[nH]nc1-c1ccc(F)c(F)c1 [Compound 4i] | % of Secondary structural elements, Random (IDO1 [3]; compound 4 µM): 38.8%; % of Secondary structural elements, Turn (IDO1 [3]; compound 4 µM): 29.4%; EC50 (IDO1 [4]): 88 ± 10 nM
4 | 92 ± 12 | 49100 ± 8510 | 3.6 | 26.8 | 34.3 | 35.3 | 0 | 30.6 | 31.2 | 38.2 | 0 | 28 | 33.9 | 38.1 | 0 | 23.8 | 46.0 | 30.2 | 0 | 29.1 | NS(=O)(=O)NCCNC(=O)c1n[nH]nc1-c1ccc(F)c(F)c1 [Compound 4k] | inhibition at 4 µM ([1]; 4 μM compound): 71 to 86%; inhibition at 100 µM ([1]; 100 μM compound): 82 to 93%; fold stronger IDO1 inhibition than MMG-0358 [1]: 3 fold; % of Secondary structural elements, Random (IDO1 [3]; compound 4 µM): 36.4%; % of Secondary structural elements, Turn (IDO1 [3]; compound 4 µM): 34.5%; EC50 (IDO1 [4]): 77 ± 5 nM
